Results taken from patent USRE44768E1, “Rapamycin hydroxyesters” (Wyeth LLC, priority 1994, dated 2014).
Several values for one entry are separate records, joined by “and”; a condition that tells them apart may be missing. Equal values may be shown once. Read-outs that look alike come from different tables or passages of the source.

Tests used:
[1] = tested on: cells from the thymus of normal BALB/c mice; experiment: comitogen-induced thymocyte proliferation procedure (LAF); conditions: for LAF ratio: ratio compared with rapamycin, greater than 1 = inhibited thymocyte proliferation to a greater extent than rapamycin; for IC50: read-out: LAF IC50
Experimental: Cells are cultured with and without various concentrations of rapamycin, cyclosporin A, or test compound. Cells are harvested and incorporated radio-activity is determined. Inhibition of lymphoproliferation is assessed as percent change in counts per minute from nondrug treated controls. For each compound evaluated, rapamycin was also evaluated for the purpose of comparison. An IC50 was obtained for each test compound as well as for rapamycin. […] The results obtained are provided as an IC50 and as the percent inhibition of T-cell proliferation at 0.1 μM. […] A positive ratio indicates immunosuppressive activity.

[2] = tested on: adjuvant arthritis (uninjected hind paw, T-cell mediated inflammation); experiment: adjuvant arthritis standard pharmacological test procedure; assay type: in vivo, male inbread Wistar Lewis rats; conditions: uninjected paw at day 16 versus control; oral dose of 5 mg/kg
Experimental: The adjuvant arthritis standard pharmacological test procedure measures the ability of test compounds to prevent immune mediated inflammation and inhibit or treat rheumatoid arthritis. The following briefly describes the test procedure used. A group of rats (male inbread Wistar Lewis rats) are pre-treated with the compound to be tested (1 h prior to antigen) and then injected with Freud's Complete Adjuvant (FCA) in the right hind paw to induce arthritis. The rats are then orally dosed on a Monday, Wednesday, Friday schedule from day 0-14 for […]. Both hind paws are measured on days 16, 23, and 30. The difference in paw volume (mL) from day 16 to day 0 is determined and a percent change from control is obtained. […] The right hind paw inflammation, on the other hand, is caused by non-specific inflammation. Compounds were tested at a dose of 5 mg/kg.

[3] = tested on: pinch skin graft from male BALB/c donors transplanted to male C3H(H-2K) recipients; experiment: pinch skin graft survival test procedure; assay type: in vivo; conditions: mean graft survival time ± S.D., dose of 4 mg/kg
Experimental: Representative compounds of this invention were also evaluated in an in vivo test procedure designed to determine the survival time of pinch skin graft from male BALB/c donors transplanted to male C3H(H-2K) recipients. The method is adapted from Billingham R. E. and Medawar P. B., J. Exp. Biol. 28:385-402, (1951). Briefly, as pinch skin graft from the donor was grafted on the dorsum of the recipient as a allograft, and an isograft was used as control in the same region. The recipients were treated with either varying concentrations of test compounds intraperitoneally or orally. Rapamycin was used as a test control. Untreated recipients serve as rejection control. The graft was monitored daily and observations were recorded until the graft became dry and formed a blackened scab. This was considered as the rejection day. The mean graft survival time (number of days±S.D.) of the drug treatment group was compared with the control group. […] Results are expressed as the mean survival time in days. Untreated (control) pinch skin grafts are usually rejected within 6-7 days. Compounds were tested using a dose of 4 mg/kg.

[4] = thymocytes cultured 72 hours with PHA and IL-1, tritiated thymidine incorporation

Row | Compound | LAF ratio [1] | IC50 [1, 4] | also measured
1 | CO[C@H]1C[C@@H]2CC[C@@H](C)[C@@](O)(O2)C(=O)C(=O)N2CCCC[C@H]2C(=O)O[C@H]([C@H](C)C[C@@H]2CC[C@@H](OC(=O)CO)[C@H](OC)C2)CC(=O)[C@H](C)/C=C(\C)[C@@H](O)[C@@H](OC)C(=O)[C@H](C)C[C@H](C)/C=C/C=C/C=C/1C [Example 2, Rapamycin 42-ester with hydroxyacetic acid] | 0.83 | 1.8 nM | Percent change in adjuvant arthritis versus control [2]: −88%
2 | COC1CC2CCC(C)C(O)(O2)C(=O)C(=O)N2CCCCC2C(=O)OC(C(C)CC2CCC(OC(=O)C3COC(C)(C)O3)C(OC)C2)CC(=O)C(C)C=C(C)C(O)C(OC)C(=O)C(C)CC(C)C=CC=CC=C1C (centres unmarked) [Example 5, Rapamycin 42-ester with 2,2-dimethyl[1,3]dioxalane-4-carboxylic acid] | 0.74 | 1.2 nM | 
3 | COC1CC2CCC(C)C(O)(O2)C(=O)C(=O)N2CCCCC2C(=O)OC(C(C)CC2CCC(OC(=O)C3COC(C)(C)O3)C(OC)C2)CC(=O)C(C)C=C(C)C(OC(=O)C2COC(C)(C)O2)C(OC)C(=O)C(C)CC(C)C=CC=CC=C1C (centres unmarked) [Example 6, Rapamycin 31,42-diester with 2,2-dimethyl[1,3]dioxalane-4-carboxylic acid] | 0.5 | 1.3 nM | 
4 | CO[C@H]1CC2CC[C@@H](C)[C@@](O)(O2)C(=O)C(=O)N2CCCC[C@H]2C(=O)O[C@H]([C@H](C)C[C@@H]2CC[C@@H](OC(=O)C(C)(CO)CO)[C@H](OC)C2)CC(=O)[C@H](C)/C=C(\C)[C@@H](O)[C@@H](OC)C(=O)[C@H](C)C[C@H](C)/C=C/C=C/C=C/1C [Example 11, Rapamycin 42-ester with 2,2-bis-(hydroxymethyl)propionic acid] |  |  | Skin graft survival time ([3]; 4 mg/kg): 11.4 ± 1.5 days and 12.0 ± 1.1 days; Percent change in adjuvant arthritis versus control [2]: < 88%
5 | CO[C@H]1C[C@@H]2CC[C@@H](C)[C@@](O)(O2)C(=O)C(=O)N2CCCC[C@H]2C(=O)O[C@H]([C@H](C)C[C@@H]2CC[C@@H](OC(=O)C3(C)COC(C)(C)OC3)[C@H](OC)C2)CC(=O)[C@H](C)/C=C(\C)[C@@H](O)[C@@H](OC)C(=O)[C@H](C)C[C@H](C)/C=C/C=C/C=C/1C [Example 10] | 0.41 | 4.9 nM | Skin graft survival time [3]: 11.0 ± 1.3 days
6 | COC1CC2CCC(C)C(O)(O2)C(=O)C(=O)N2CCCCC2C(=O)OC(C(C)CC2CCC(OC(=O)C(C)(C)COC3CCCCO3)C(OC)C2)CC(=O)C(C)C=C(C)C(O)C(OC)C(=O)C(C)CC(C)C=CC=CC=C1C (centres unmarked) [Example 3, Rapamycin 42-ester with 2,2-dimethyl-3-(tetrahydropyran-2-yloxy)propionic acid] | 0.34 | 7.1 nM | 
7 | COC1CC2CCC(C)C(O)(O2)C(=O)C(=O)N2CCCCC2C(=O)OC(C(C)CC2CCC(OC(=O)C(CO)CO)C(OC)C2)CC(=O)C(C)C=C(C)C(O)C(OC)C(=O)C(C)CC(C)C=CC=CC=C1C (centres unmarked) [Example 9, Rapamycin 42-ester with 3-hydroxy-2-hydroxymethylpropionic acid] | 0.57 | 0.84 nM | 
8 | Rapamycin 42-ester with 2,2-dimethyl-5-(2-trimethylsilanylethoxymethyl)[1,3]dioxane-5-carboxylic acid [Example 12] | 0.05 | 7.2 nM | 
9 | CO[C@H]1C[C@@H]2CC[C@@H](C)[C@@](O)(O2)C(=O)C(=O)N2CCCC[C@H]2C(=O)O[C@H]([C@H](C)C[C@@H]2CC[C@@H](O)[C@H](OC)C2)CC(=O)[C@H](C)/C=C(\C)[C@@H](O)[C@@H](OC)C(=O)[C@H](C)C[C@H](C)/C=C/C=C/C=C/1C [rapamycin, Rapamycin] |  |  | IC50 ([1]; Mus musculus, Thymocyte, 72 h): 0.6 to 1.5 nM
10 | COC1CC2CCC(C)C(O)(O2)C(=O)C(=O)N2CCCCC2C(=O)OC(C(C)CC2CCC(OC(=O)C3COC(C)(C)OC3)C(OC)C2)CC(=O)C(C)C=C(C)C(O)C(OC)C(=O)C(C)CC(C)C=CC=CC=C1C (centres unmarked) [Example 8] | 0.45 | 0.76 nM | 
11 | CO[C@H]1C[C@@H]2CC[C@@H](C)[C@@](O)(O2)C(=O)C(=O)N2CCCC[C@H]2C(=O)O[C@H]([C@H](C)C[C@@H]2CC[C@@H](OC(=O)C(C)(C)CO)[C@H](OC)C2)CC(=O)[C@H](C)/C=C(\C)[C@@H](O)[C@@H](OC)C(=O)[C@H](C)C[C@H](C)/C=C/C=C/C=C/1C [Example 4, Rapamycin 42-ester with 3-hydroxy-2,2-dimethylpropionic acid] | 1.25 | 0.8 nM | Skin graft survival time [3]: 10.7 ± 0.5 days
12 | COC1CC2CCC(C)C(O)(O2)C(=O)C(=O)N2CCCCC2C(=O)OC(C(C)CC2CCC(OC(=O)C3(C)COC4(CCCCC4)OC3)C(OC)C2)CC(=O)C(C)C=C(C)C(OC(=O)C2(C)COC3(CCCCC3)OC2)C(OC)C(=O)C(C)CC(C)C=CC=CC=C1C (centres unmarked) [Example 14, Rapamycin 31.42-diester with 3-methyl-1.5-dioxa-spiro[5.5]undecane 3-carboxylic acid] |  |  | percent inhibition of T-cell proliferation ([1]; at 0.1 μM): 43%
13 | COC1CC2CCC(C)C(O)(O2)C(=O)C(=O)N2CCCCC2C(=O)OC(C(C)CC2CCC(OC(=O)C3(C)COC4(CCCCC4)OC3)C(OC)C2)CC(=O)C(C)C=C(C)C(O)C(OC)C(=O)C(C)CC(C)C=CC=CC=C1C (centres unmarked) [Example 13, Rapamycin 42-ester with 3-methyl-1,5-dioxa-spiro[5.5]undecane 3-carboxylic acid] | 2.00 | 0.6 nM | 
14 | Rapamycin 42-ester with 2,3-dihydroxypropionic acid [Example 7] | 0.40 | 1.4 nM | 
